The text below walks through data of ChEMBL document CHEMBL3046952, “Stereoselective synthesis of 2-amino-1-hydroxy-3-phenylpropylphosphonic acid” (1996).

SMILES strings stand for the structures. Calls of active or inactive are those of the source. No cut-off for these calls is given here.

Assay [1] relates to Cucumis sativus. Briefly: Inhibition of growth of Cucumis sativus (cucumber) hypocotyl at 1.5 mM relative to control. The assay is classed as functional. As to conditions: read-out: GI.
For assay [2], the system named is Lepidium sativum. Put plainly: Inhibition of growth of Lepidium sativum hypocotyl at 0.15 mM relative to control. The format is functional. The settings on record: read-out: GI.
Assay [3] relates to Lepidium sativum. Put plainly: Inhibition of growth of Lepidium sativum hypocotyl at 0.05 mM relative to control. The assay is classed as functional. The settings on record: read-out: GI.
Assay [4] deals with Lepidium sativum. Briefly: Inhibition of growth of Lepidium sativum root at 1.5 mM relative to control. The assay is classed as functional. As to conditions: read-out: GI.
In assay [5] the test system is Lepidium sativum. Put plainly: Inhibition of growth of Lepidium sativum root at 0.5 mM relative to control. As to conditions: read-out: GI. The format is functional.
Assay [6] has as its system Lepidium sativum. Briefly: Inhibition of growth of Lepidium sativum root at 0.15 mM relative to control. The format is functional. As to conditions: read-out: GI.
For assay [7], the system named is Lepidium sativum. Briefly: Inhibition of growth of Lepidium sativum root at 0.05 mM relative to control. The assay is classed as functional. As to conditions: read-out: GI.
Assay [8] has as its system Cucumis sativus. Put plainly: Inhibition of growth of Cucumis sativus (cucumber) root at 1.5 mM relative to control. The assay is classed as functional. The settings on record: read-out: GI.
In assay [9] the test system is Cucumis sativus. Put plainly: Inhibition of growth of Cucumis sativus (cucumber) root at 0.5 mM relative to control. The assay is classed as functional. As to conditions: read-out: GI.
The test system of assay [10] is Cucumis sativus. Put plainly: Inhibition of growth of Cucumis sativus (cucumber) root at 0.15 mM relative to control. The assay is classed as functional. The settings on record: read-out: GI.
Assay [11] concerns Cucumis sativus. Briefly: Inhibition of growth of Cucumis sativus (cucumber) root at 0.05 mM relative to control. The settings on record: read-out: GI. The assay is classed as functional.
Assay [12] has as its system Lepidium sativum. Put plainly: Inhibition of growth of Lepidium sativum hypocotyl at 1.5 mM relative to control. The format is functional. As to conditions: read-out: GI.
For assay [13], the system named is Lepidium sativum. Put plainly: Inhibition of growth of Lepidium sativum hypocotyl at 0.5 mM relative to control. As to conditions: read-out: GI. The format is functional.
Assay [14] in a line: Inhibition of microsomal aminopeptidase.
Assay [15] is described as follows: Inhibition of cytosolic aminopeptidase.
Assay [16] relates to Cucumis sativus. Put plainly: Inhibition of growth of Cucumis sativus (cucumber) hypocotyl at 0.5 mM relative to control. The settings on record: read-out: GI. The assay is classed as functional.
The subject of assay [17] is Cucumis sativus. Briefly: Inhibition of growth of Cucumis sativus (cucumber) hypocotyl at 0.15 mM relative to control. The assay is classed as functional. As to conditions: read-out: GI.
Assay [18] relates to Cucumis sativus. Put plainly: Inhibition of growth of Cucumis sativus (cucumber) hypocotyl at 0.05 mM relative to control. The settings on record: read-out: GI. The format is functional.

As to `O=C(O)CNCP(=O)(O)O` [GLYPHOSATE], the inhibition of growth at 1500 µM was determined as 22% in the assay on Cucumis sativus [1], 93% with Lepidium sativum [4], 84% in the assay on Cucumis sativus [8] and 44% with Lepidium sativum [12]. Also, the inhibition of growth at 150 µM in the assay with Lepidium sativum [2] was 16%; in the assay with Lepidium sativum [6] it was 88%; with Cucumis sativus [10], 71%. In addition, the inhibition of growth at 50 µM in the assay on Lepidium sativum [3] was found to be 13%; with Lepidium sativum [7], 86%; with Cucumis sativus [11], 60%. The inhibition of growth at 500 µM came to 90% in the assay on Lepidium sativum [5], 78% with Cucumis sativus [9] and 20% in the assay with Lepidium sativum [13].

Regarding `N[C@H](Cc1ccccc1)[C@@H](O)P(=O)(O)O` (stereo in doubt), the inhibition entry in [14] and in assay [15] was “inactive” in each case. Besides, the inhibition of growth at 1500 µM in the assay with Cucumis sativus [1] worked out at 49%; in the assay with Lepidium sativum [4], 88%; in the assay on Cucumis sativus [8], 80%; with Lepidium sativum [12] it was 54%. Further, the values for the inhibition of growth at 500 µM in the assay with Cucumis sativus [16], in the assay on Lepidium sativum [5] and with Cucumis sativus [9] were 37%, 74% and 73%, respectively. Also, the inhibition of growth at 150 µM with Cucumis sativus [17] amounted to 33%; in the assay with Lepidium sativum [2] it was 9%; with Lepidium sativum [6], 66%; with Cucumis sativus [10], 68%. The inhibition of growth at 50 µM in the assay on Cucumis sativus [18] was determined as 23%; with Lepidium sativum [3], 16%; in the assay with Lepidium sativum [7], 36%; with Cucumis sativus [11], 51%.

For `N[C@@H](Cc1ccccc1)[C@H](O)P(=O)(O)O` (stereo in doubt), the inhibition entry in assay [14] and in assay [15] was “inactive” in each case. Besides, the inhibition of growth at 1500 µM worked out at 64% in the assay on Cucumis sativus [1], 92% in the assay on Lepidium sativum [4], 83% with Cucumis sativus [8] and 68% in the assay with Lepidium sativum [12]. In addition, the inhibition of growth at 500 µM is 56% with Cucumis sativus [16], 87% with Lepidium sativum [5], 81% in the assay on Cucumis sativus [9] and 64% in the assay with Lepidium sativum [13]. The inhibition of growth at 150 µM amounted to 45% in the assay on Cucumis sativus [17], 46% in the assay with Lepidium sativum [2], 86% with Lepidium sativum [6] and 75% in the assay on Cucumis sativus [10]. Further, the inhibition of growth at 50 µM stood at 36% with Cucumis sativus [18], 22% with Lepidium sativum [3], 82% with Lepidium sativum [7] and 69% in the assay on Cucumis sativus [11].
